Results: US20050192337A1, “Processes and polymorphs of diaryl-indolone galr3 antagonists” (priority 2002, published 2005)

What was measured:
Assay type in all cases: physicochemical
[1] = Stress studies of Compound I (heat stress, XRPD of resulting solid); conditions: for Stability to heat stress: Table 7
Description: (§1) X-ray powder diffraction (XRPD) analyses were performed using a Shimadzu XRD-6000 X-ray powder diffractometer using Cu Kα radiation. The instrument was equipped with a fine focus X-ray tube. The tube voltage and amperage were set to 40 kV and 40 mA, respectively. The divergence and scattering slits were set at 1° and the receiving slit was set at 0.15 mm. Diffracted radiation was detected by a NaI scintillation detector. A theta-two theta continuous scan at 3°/min (0.4 sec/0.02° step) from 2.5 to 40° 2θ was used. A silicon standard was analyzed to check the instrument alignment. Data were collected and analyzed using XRD-6000 v. 4.1. Samples were prepared for analysis by placing them in a silicon sample holder or aluminum holder with silicon insert. X-ray powder diffraction (XRPD) analyses were also performed using an Inel XRG-3000 diffractometer equipped with a CPS (Curved Position Sensitive) detector with a 2θ range of 120°. Real time data were collected using Cu-Kα radiation starting at approximately 4° 2θ at a resolution of 0.03° 2θ. The tube voltage and amperage were set to 40 kV and 30 mA, respectively. The monochromator slit was set at 5 mm by 80 μm. […] Samples were prepared for analysis by packing them into thin-walled glass capillaries. Each capillary was mounted onto a goniometer head that is motorized to permit spinning of the capillary during data acquisition. The samples were analyzed for 5 min. Instrument calibration was performed using a silicon reference standard.
(§2) All three polymorphs are also non-hygroscopic, as indicated by the data in Table 8.

[2] = Moisture sorption/desorption (moisture balance) of Compound I forms
[3] = Slurry experiments on Compound I crystalline forms (XRPD); conditions: for Conversion upon stirring as a slurry in an organic solvent: a few hours to several days, Tables 9 and 10
Description: as §1, §2
Form I can be obtained in a straightforward fashion by stirring a slurry of any solid form of Compound I, and particularly Form II or III, in an organic solvent in which Compound I is partially soluble, for several hours until the material converts completely to Form I. Formation of Form I can be analyzed through DSC or, preferably, XRPD analysis. In one embodiment of the invention, a slurry of solid Compound I in an organic solvent is generated by cooling a hot, saturated solution of Compound I in an organic solvent, allowing crystals to form, then stirring the resulting slurry for several hours or a few days until the solid material converts substantially or completely to Form I. In a preferred embodiment, the hot, saturated solution of Compound I is generated in situ in the one-pot synthetic process described above. Form I can also be prepared by slurrying for several hours Compound I, Form II in a saturated methanol solution or in an appropriate solvent.

[4] = Differential scanning calorimetry, relative stability of forms on heating; conditions: high temperatures, DSC 1° C./min
Description: Differential scanning calorimetry (DSC) was performed using a TA Instruments differential scanning calorimeter 2920. The sample was placed into an aluminum DSC pan, and the weight accurately recorded. The pan was covered with a lid and left uncrimped. Each sample was equilibrated at 25° C. and heated under a nitrogen purge at a rate of 10 or 20° C./min, up to a final temperature of 270° C. or 350° C. Samples were also heated at 1 or 5° C./min up to 150° C.

[5] = Interconversion experiments of Compound I (slurry of mixed forms, XRPD); conditions: 25° C.
Description: as §1, with “Each capillary was mounted onto a goniometer head that is motorized to permit spinning of the capillary during data acquisition.” left out, “Instrument calibration was performed using a silicon reference standard.” left out

| SMILES | Result (XRPD form after stress) ([1]; 80 C., 4 days) | Stability to heat stress [1] | Moisture Balance Results: weight loss at 5% RH ([2]; 5% RH) | Moisture Balance Results: total weight gain at 95% RH [2] [% total weight gain at] | XRPD Results after slurry ([3]; MeOH, ambient, 11 d) | Conversion upon stirring as a slurry in an organic solvent [3] | Hygroscopicity [2] | also measured |
| --- | --- | --- | --- | --- | --- | --- | --- | --- |
| O=C1/C(=N\c2cccc(C(F)(F)F)c2)c2ccccc2N1c1ccccc1 [Form II, 1-phenyl-3-[[3-(trifluoromethyl)phenyl]imino]-1H-indol-2-one] | II (PO) + peak@5° 2θ | relatively stable to heat stress | <0.1% weight loss at 5% RH, | <0.1 | I (PO) | convert to Form I | – | XRPD Results after slurry ([3]; Experiment 3, MeOH, 25° C., 1 hour): II + I (minor); XRPD Results after slurry ([3]; Experiment 4, MeOH, 25° C., 1 hour): I + II; XRPD Results after slurry ([3]; Experiment 4, MeOH, 25° C., 1 hour 20 min): I + II; XRPD Results after slurry ([3]; Experiment 4, MeOH, 25° C., 1 hour 40 min): I + II (minor); Relative stability of forms [4]: more stable than Form I |
| O=C1/C(=N\c2cccc(C(F)(F)F)c2)c2ccccc2N1c1ccccc1 [Compound I, 1-phenyl-3-[[3-(trifluoromethyl)phenyl]imino]-1H-indol-2-one] | – | – | <0.1% weight loss at 5% RH, | <0.1 | I (PO) | – | – | – |
| O=C1C(=Nc2cccc(C(F)(F)F)c2)c2ccccc2N1c1ccccc1 (racemic) [Form III, 1-phenyl-3-[[3-(trifluoromethyl)phenyl]imino]-1H-indol-2-one] | III (SS) | relatively stable to heat stress | <0.1% weight loss at 5% RH, | – | – | convert to Form I | nonhygroscopic | Result (XRPD form after stress) ([1]; 60 C., 4 days): III (SS); Result (XRPD form after stress) ([1]; 70 C., 4 days): III (SS); Moisture Balance Results: total weight gain at 95% RH ([2]; listed as III): <0.1% total weight gain at |
| O=C1/C(=N\c2cccc(C(F)(F)F)c2)c2ccccc2N1c1ccccc1 [Form I, 1-phenyl-3-[[3-(trifluoromethyl)phenyl]imino]-1H-indol-2-one] | – | relatively stable to heat stress | – | – | – | remains unchanged | nonhygroscopic | Relative stability of forms [5]: more stable than either Form II or III |
| O=C1C(=Nc2cccc(C(F)(F)F)c2)c2ccccc2N1c1ccccc1 (racemic) [amorphous, 1-phenyl-3-[[3-(trifluoromethyl)phenyl]imino]-1H-indol-2-one] | – | – | – | 0.3 | – | – | – | Result (XRPD form after stress) ([1]; 60 C./17 hours): III (LC); Moisture Balance Results: weight gain at 5% RH ([2]; 5% RH): <0.1% weight gain at 5% RH,; XRPD Results on solid after moisture balance run ([2]; after moisture balance run): amorphous |
